We go through 30 compounds from patent US8703768B2, “Nitrogen containing heteroaryl compounds” (Hoffmann-La Roche Inc., priority 2010, dated 2014).

Each structure is given as a SMILES string.

For this experiment, the target named is human PDE10A (Homo sapiens (Human), UniProt Q9Y233). As to the kind of experiment: human PDE10A full length Scintillation Proximity Assay (SPA). The class given is biochemical. To be noted: 50 nM cGMP and 50 nM [3H]-cGMP, 20 minutes at room temperature; read-out: PDE10A inhibition IC50. Summed up: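 Full-length enzyme incubated with compounds; reaction started with cGMP plus [^3H]-cGMP substrate and run 20 min at room temperature. Stopped with yttrium silicate SPA beads in 18 mM zinc sulphate, 1 h shaking, then scintillation counting; background from enzyme-free wells.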
Sequence of human PDE10A (Q9Y233 other isoform, or with tags, fused parts or gaps): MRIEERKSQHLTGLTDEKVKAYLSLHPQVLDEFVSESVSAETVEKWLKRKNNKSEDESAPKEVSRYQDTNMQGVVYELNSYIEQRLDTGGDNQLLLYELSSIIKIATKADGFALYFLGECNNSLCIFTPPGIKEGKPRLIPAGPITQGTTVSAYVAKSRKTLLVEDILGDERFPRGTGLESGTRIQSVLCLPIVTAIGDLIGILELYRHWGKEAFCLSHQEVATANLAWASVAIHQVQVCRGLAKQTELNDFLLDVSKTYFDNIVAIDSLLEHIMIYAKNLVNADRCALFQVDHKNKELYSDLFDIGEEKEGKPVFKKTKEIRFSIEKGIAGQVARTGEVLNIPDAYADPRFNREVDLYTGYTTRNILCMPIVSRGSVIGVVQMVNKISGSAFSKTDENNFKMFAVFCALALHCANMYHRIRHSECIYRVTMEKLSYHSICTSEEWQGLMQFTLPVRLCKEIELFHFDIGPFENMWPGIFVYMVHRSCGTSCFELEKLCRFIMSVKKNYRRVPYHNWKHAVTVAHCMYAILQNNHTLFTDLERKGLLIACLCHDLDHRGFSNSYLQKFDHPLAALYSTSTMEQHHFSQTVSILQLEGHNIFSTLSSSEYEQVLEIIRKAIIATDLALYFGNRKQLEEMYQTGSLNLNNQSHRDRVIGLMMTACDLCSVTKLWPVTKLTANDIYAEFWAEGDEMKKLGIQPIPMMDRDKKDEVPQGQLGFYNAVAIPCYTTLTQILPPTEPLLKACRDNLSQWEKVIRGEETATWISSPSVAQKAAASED

With `CCn1cc(NC(=O)c2nc(C3CC3)cnc2Nc2cncnc2)c(C(=O)NCC2CCCO2)n1` (stereo not drawn) [Example 108, 6-Cyclopropyl-N-(1-ethyl-3-((tetrahydrofuran-2-yl)methylcarbamoyl)-1H-pyrazol-4-yl)-3-(pyrimidin-5-ylamino)pyrazine-2-carboxamide], the 50% inhibitory concentration (IC50) is 39.7 nM. Turning to `CCNC(=O)c1c(NC(=O)c2nc(C3CC3)cnc2Nc2cncnc2)sc2c1CCCC2` [Example 185, 6-Cyclopropyl-3-(pyrimidin-5-ylamino)-pyrazine-2-carboxylic acid (3-ethylcarbamoyl-4,5,6,7-tetrahydro-benzo[b]thiophen-2-yl)-amide], the IC50 was determined as 2690 nM. Next, `CN(CC(C)(C)O)C(=O)c1c(NC(=O)c2nc(C3CC3)cnc2Nc2cncnc2)cnn1C` [Example 153, 6-Cyclopropyl-3-(pyrimidin-5-ylamino)-pyrazine-2-carboxylic acid {5-[(2-hydroxy-2-methyl-propyl)-methyl-carbamoyl]-1-methyl-1H-pyrazol-4-yl}-amide]: 16.1 nM; `CNC(=O)c1nn(C)cc1NC(=O)c1nc(C2CCOC2)ccc1Nc1cncnc1` (stereo not drawn) [Example 127, 3-(Pyrimidin-5-ylamino)-6-(tetrahydro-furan-3-yl)-pyridine-2-carboxylic acid (1-methyl-3-methylcarbamoyl-1H-pyrazol-4-yl)-amide]: 8.5 nM. Next, `CNC(=O)c1c(NC(=O)c2nc(C3CC3)cnc2Nc2cncnc2)cnn1C` [Example 116, 6-Cyclopropyl-3-(pyrimidin-5-ylamino)-pyrazine-2-carboxylic acid (1-methyl-5-methylcarbamoyl-1H-pyrazol-4-yl)-amide]: 4.5 nM. Next, `Cn1cc(NC(=O)c2nc(C3CC3)ccc2Nc2cncnc2)c(C(N)=O)n1` [Example 3, 6-Cyclopropyl-3-(pyrimidin-5-ylamino)-pyridine-2-carboxylic acid (3-carbamoyl-1-methyl-1H-pyrazol-4-yl)-amide]: 7.5 nM. With `CNC(=O)c1c(NC(=O)c2nc(C3CC3)cnc2Nc2cncnc2)cnn1CC1CCO1` (stereo not drawn) [Example 282, 6-Cyclopropyl-3-(pyrimidin-5-ylamino)-pyrazine-2-carboxylic acid (5-methylcarbamoyl-1-oxetan-2-ylmethyl-1H-pyrazol-4-yl)-amide], the IC50 came out at 2 nM. In the case of `CNC(=O)c1c(NC(=O)c2nc(N3CCCC3)cnc2Nc2cncnc2)cnn1C` [Example 289, 3-(Pyrimidin-5-ylamino)-6-pyrrolidin-1-yl-pyrazine-2-carboxylic acid (1-methyl-5-methylcarbamoyl-1H-pyrazol-4-yl)-amide] it was 24 nM. In the case of `CNC(=O)c1c(NC(=O)c2nc(C3CC3)cnc2Nc2cncnc2)cnn1CCOC` [Example 147, 6-Cyclopropyl-3-(pyrimidin-5-ylamino)-pyrazine-2-carboxylic acid [1-(2-methoxy-ethyl)-5-methylcarbamoyl-1H-pyrazol-4-yl]-amide] it was 1.2 nM; in that of `CNC(=O)c1c(NC(=O)c2nc(C3CC3)cnc2Nc2cncnc2)cnn1C1CCOC1` (stereo not drawn) [Example 250, 6-Cyclopropyl-3-(pyrimidin-5-ylamino)-pyrazine-2-carboxylic acid [5-methylcarbamoyl-1-(tetrahydro-furan-3-yl)-1H-pyrazol-4-yl]-amide], 15.9 nM. In the case of `CN(C)C(=O)c1c(NC(=O)c2nc(C3CC3)cnc2Nc2cncnc2)ccc(F)c1F` [Example 316, 6-Cyclopropyl-3-(pyrimidin-5-ylamino)-pyrazine-2-carboxylic acid (2-dimethylcarbamoyl-3,4-difluoro-phenyl)-amide] it was 24.1 nM; in that of `CNC(=O)c1cc(C#N)ccc1NC(=O)c1nc(C2CC2)cnc1Nc1cncnc1` [Example 261, 6-Cyclopropyl-3-(pyrimidin-5-ylamino)-pyrazine-2-carboxylic acid (4-cyano-2-methylcarbamoyl-phenyl)-amide], 3.5 nM. Turning to `COc1cccc(NC(=O)c2nc(C3CC3)cnc2Nc2cncnc2)c1C(=O)N(C)C` [Example 206, 6-Cyclopropyl-3-(pyrimidin-5-ylamino)-pyrazine-2-carboxylic acid (2-dimethylcarbamoyl-3-methoxy-phenyl)-amide], the concentration for half-maximal inhibition (IC50) was found to be 12.2 nM. Next, `O=C(NC1CC1)c1nocc1NC(=O)c1nc(C2CC2)cnc1Nc1cncnc1` [Example 163, 6-Cyclopropyl-3-(pyrimidin-5-ylamino)-pyrazine-2-carboxylic acid (3-cyclopropylcarbamoyl-isoxazol-4-yl)-amide]: 6.2 nM. In the case of `Cn1ncc(NC(=O)c2nc(C3CC3)cnc2Nc2cncnc2)c1C(=O)N1CCC1` [Example 155, 6-Cyclopropyl-3-(pyrimidin-5-ylamino)-pyrazine-2-carboxylic acid [5-(azetidine-1-carbonyl)-1-methyl-1H-pyrazol-4-yl]-amide] it was 12.7 nM; in that of `Cn1cc(NC(=O)c2nc(C3CC3)ccc2Nc2cncnc2)c(C(=O)N2CCCC2CO)n1` (stereo not drawn) [Example 49, 6-Cyclopropyl-3-(pyrimidin-5-ylamino)-pyridine-2-carboxylic acid [3-(2-hydroxymethyl-pyrrolidine-1-carbonyl)-1-methyl-1H-pyrazol-4-yl]-amide], 3.9 nM; in that of `Cn1ncc(NC(=O)c2nc(C3CC3)cnc2Nc2cncnc2)c1C(=O)NCC(F)(F)F` [Example 144, 6-Cyclopropyl-3-(pyrimidin-5-ylamino)-pyrazine-2-carboxylic acid [1-methyl-5-(2,2,2-trifluoro-ethylcarbamoyl)-1H-pyrazol-4-yl]-amide], 2.1 nM.

On to `Cn1cc(NC(=O)c2nc(C3CC3)cnc2Nc2cncnc2)c(C(=O)NCC2CCCO2)n1` (stereo not drawn) [Example 109, 6-Cyclopropyl-N-(1-methyl-3-((tetrahydrofuran-2-yl)methylcarbamoyl)-1H-pyrazol-4-yl)-3-(pyrimidin-5-ylamino)pyrazine-2-carboxamide], for which the 50% inhibitory concentration (IC50) was found to be 18.9 nM. Next, `CNC(=O)c1c(NC(=O)c2nc(C3CC3)cnc2Nc2cncnc2)cnn1CCO` [Example 264, 6-Cyclopropyl-3-(pyrimidin-5-ylamino)-pyrazine-2-carboxylic acid [1-(2-hydroxy-ethyl)-5-methylcarbamoyl-1H-pyrazol-4-yl]-amide]: 3.2 nM; `CC1(NC(=O)c2ncccc2NC(=O)c2nc(C3CC3)cnc2Nc2cncnc2)COC1` [Example 275, 6-Cyclopropyl-3-(pyrimidin-5-ylamino)-pyrazine-2-carboxylic acid [2-(3-methyl-oxetan-3-ylcarbamoyl)-pyridin-3-yl]-amide]: 0.4 nM; `CNC(=O)c1nn(CC(F)(F)F)cc1NC(=O)c1nc(C2CC2)ccc1Nc1cncnc1` [Example 8, 6-Cyclopropyl-3-(pyrimidin-5-ylamino)-pyridine-2-carboxylic acid [3-methylcarbamoyl-1-(2,2,2-trifluoro-ethyl)-1H-pyrazol-4-yl]-amide]: 140 nM. Next, `CNC(=O)c1c(NC(=O)c2nc(OC)cnc2Nc2cncnc2)cnn1C` [Example 258, 6-Methoxy-3-(pyrimidin-5-ylamino)-pyrazine-2-carboxylic acid (1-methyl-5-methylcarbamoyl-1H-pyrazol-4-yl)-amide]: 176 nM; `COC(C)(C)CNC(=O)c1c(NC(=O)c2nc(C3CC3)cnc2Nc2cncnc2)cnn1C` [Example 151, 6-Cyclopropyl-3-(pyrimidin-5-ylamino)-pyrazine-2-carboxylic acid [5-(2-methoxy-2-methyl-propylcarbamoyl)-1-methyl-1H-pyrazol-4-yl]-amide]: 2.7 nM; `CCN(C)C(=O)c1ncncc1NC(=O)c1nc(C2CC2)cnc1Nc1cncnc1` [Example 204, 5-{[6-Cyclopropyl-3-(pyrimidin-5-ylamino)-pyrazine-2-carbonyl]-amino}-pyrimidine-4-carboxylic acid ethyl-methyl-amide]: 52.5 nM.

Regarding `CNC(=O)c1c(NC(=O)c2nc(C3CC3)ccc2Nc2cncnc2)cnn1CCOC` [Example 11, 6-Cyclopropyl-3-(pyrimidin-5-ylamino)-pyridine-2-carboxylic acid [1-(2-methoxy-ethyl)-5-methylcarbamoyl-1H-pyrazol-4-yl]-amide], the IC50 was 1.2 nM. Next, `CN(CC(O)CO)C(=O)c1nn(C)cc1NC(=O)c1nc(C2CC2)ccc1Nc1cncnc1` (stereo not drawn) [Example 46, 6-Cyclopropyl-3-(pyrimidin-5-ylamino)-pyridine-2-carboxylic acid {3-[(2,3-dihydroxy-propyl)-methyl-carbamoyl]-1-methyl-1H-pyrazol-4-yl}-amide]: 19.3 nM.

For `COCCN(C)C(=O)c1ncncc1NC(=O)c1nc(C2CC2)cnc1Nc1cncnc1` [Example 118, 5-{[6-Cyclopropyl-3-(pyrimidin-5-ylamino)-pyrazine-2-carbonyl]-amino}-pyrimidine-4-carboxylic acid (2-methoxy-ethyl)-methyl-amide], the half-maximal inhibitory concentration (IC50) was found to be 89.7 nM. Take `Cn1cc(NC(=O)c2nc(C3CC3)ccc2Nc2cncnc2)c(C(=O)NC2CCCC2)n1` [Example 34, 6-Cyclopropyl-3-(pyrimidin-5-ylamino)-pyridine-2-carboxylic acid (3-cyclopentylcarbamoyl-1-methyl-1H-pyrazol-4-yl)-amide]: the IC50 was 4.5 nM. Consider `CNC(=O)c1nn(C)cc1NC(=O)c1nc(C(C)O)cnc1Nc1cncnc1` (stereo not drawn) [Example 115, 6-(1-Hydroxy-ethyl)-3-(pyrimidin-5-ylamino)-pyrazine-2-carboxylic acid (1-methyl-3-methylcarbamoyl-1H-pyrazol-4-yl)-amide], for which the half-inhibitory concentration (IC50) was found to be 171 nM.

For `CN(CCF)C(=O)c1c(NC(=O)c2nc(C3CC3)cnc2Nc2cncnc2)cnn1C` [Example 245, 6-Cyclopropyl-3-(pyrimidin-5-ylamino)-pyrazine-2-carboxylic acid {5-[(2-fluoro-ethyl)-methyl-carbamoyl]-1-methyl-1H-pyrazol-4-yl}-amide], the IC50 is 35.9 nM.
